Data: patent US10821164B2, “Peptides for inducing Chagas disease responses” (SAINT LOUIS UNIVERSITY, priority 2015, dated 2020)

Key:
CD8^+ T cells = test: IFN-γ ELISPOT after vaccination of HLA-A2 transgenic mice with peptide-pulsed mature dendritic cells; assay type: cell-based, HLA-A2 HHDII transgenic mice; details: splenic CD8+ T cells four weeks after second peptide-pool pulsed mDC vaccination; stimulated overnight with spleen cells pulsed with individual peptide 5 μg/ml; FIG. 2A
Excerpt: FIGS. 2A-C—Immunogenicity of predicted HLA-A2 restricted T. cruzi epitopes. HLA-A2 transgenic mice were vaccinated twice, two weeks apart with mature dendritic cells pulsed with functional TS (F-TS; FIG. 2A), Non-functional TS (NF-TS; FIG. 2B), or whole genome derived Non-TS peptide pools (FIG. 2C). One month later, CD8^+ T cells were isolated from control DC or peptide-pool pulsed DC vaccinated mice and stimulated overnight with APCs pulsed with individual F-TS, NF-TS, or Non-TS peptides in IFN-γ ELISPOT assays. Shown are mean±SE from representative experiments expressed as IFN-γ spot forming cells (SFC) per million CD8^+ T cells above DMSO control. Asterisks denote immunogenic peptides defined as responses greater than the mean+2 SE of all control CD8^+ T cell responses.
All animal studies were conducted in AAALAC accredited facilities and were approved by the Saint Louis University Institutional Animal Care and Use Committee. HLA-A2 HHDII transgenic mice were provided by Ted Hansen (Washington University) with permission from Marion Berard at the Institut Pasteur and were bred and housed under pathogen-free conditions throughout the inventors' studies (Pascolo et al., 1997). […]

T. cruzi = details: children aged six to 12 years with chronic disease; cited from earlier work

Row | Compound | IFN-γ spot forming cells (SFC) per million CD8^+ T cells above DMSO control (CD8^+ T cells) | cure rate (T. cruzi)
1 | EVYSLVFARL [F-TS-2] | 5,000 IFN-γ SFC/million CD8^+ T cells | 
2 | O=C(Cn1ccnc1[N+](=O)[O-])NCc1ccccc1 [benznidazole] |  | about 60%
